These results are taken from patent US11952353B2, “STAT3 transcription factor inhibitors and methods of using the same” (The Regents of the University of Colorado, A Body Corporate, priority 2018, dated 2024).

What is called EC50 is the concentration that produces a half-maximal response. Higher therefore signals lower potency in that assay.

The target in data set [1] is T1, full-length, GST-tagged human STAT3 protein (Homo sapiens, UniProt P40763).
T1 construct: full-length, GST-tagged human STAT3 protein and various concentrations of compounds
T1 sequence (P40763 whole entry): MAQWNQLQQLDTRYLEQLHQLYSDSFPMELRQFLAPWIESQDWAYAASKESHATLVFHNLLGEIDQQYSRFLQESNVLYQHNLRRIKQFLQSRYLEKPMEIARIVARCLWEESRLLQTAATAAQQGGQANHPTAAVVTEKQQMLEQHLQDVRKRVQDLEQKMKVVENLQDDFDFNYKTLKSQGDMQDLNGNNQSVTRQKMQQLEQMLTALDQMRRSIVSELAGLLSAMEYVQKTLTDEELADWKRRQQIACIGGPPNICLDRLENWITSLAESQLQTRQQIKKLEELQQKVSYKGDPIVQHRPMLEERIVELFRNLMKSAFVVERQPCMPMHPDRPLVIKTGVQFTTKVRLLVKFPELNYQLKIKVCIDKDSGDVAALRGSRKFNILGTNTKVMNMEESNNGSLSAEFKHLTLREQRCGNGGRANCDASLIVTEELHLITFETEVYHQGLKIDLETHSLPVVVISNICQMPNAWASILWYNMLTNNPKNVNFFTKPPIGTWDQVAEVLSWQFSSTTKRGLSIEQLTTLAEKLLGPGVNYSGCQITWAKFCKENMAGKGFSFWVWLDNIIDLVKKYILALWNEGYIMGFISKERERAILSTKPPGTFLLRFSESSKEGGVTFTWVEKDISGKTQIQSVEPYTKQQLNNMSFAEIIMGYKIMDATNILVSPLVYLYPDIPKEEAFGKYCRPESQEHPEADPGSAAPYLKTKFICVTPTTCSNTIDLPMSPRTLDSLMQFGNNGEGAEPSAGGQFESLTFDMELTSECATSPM
As to the kind of experiment: Recombinant STAT3 ELISA (STAT3/DNA binding). The format is biochemical. The settings on record: 2 μM; for mean value, % of STAT3 only control: 1 hour incubation. Here is the method:
Measurement of STAT3 binding to DNA was performed using a TransAM STAT3 ELISA kit (Active Motif) and according to the previously used protocol. Briefly, full-length, GST-tagged human STAT3 protein and various concentrations of compounds to be evaluated or niclosamide were incubated in Complete Lysis Buffer at a final volume of 20 μL containing 0.1 μg recombinant protein for 1 hour with mild agitation. Following incubation with STAT3 inhibitors, samples were added to corresponding ELISA wells with 30 μL of Complete Binding Buffer and inhibition of STAT3 protein binding to the DNA consensus sequence was determined. Data was reported as percent of control.
A general note: An ELISA detects its analyte on a solid surface through an enzyme-linked reagent.

The test system of data set [2] is HeLa cells. Briefly: MTT cell viability assay. The format is cell-based. The conditions noted are these: 24 h; for EC50: Homo sapiens. The procedure: HeLa cells were plated in 96-well plates at a density of 5,000 cells/well in 100 μL of media and were incubated for 24 hours. Media was then aspirated and replaced with 100 μL of media containing various concentrations of compounds ranging from 500 μM-0.0019 μM. Cells were exposed to compounds for 24 hours, following which the media was aspirated and 50 μL MTT solution diluted in media was added to each well at a final concentration of 1 mg/mL. MTT was exposed to cells for 4 hours, aspirated, and then 100 μL of DMSO was added to each well. Plates were agitated for 10 minutes prior to reading absorbance at 540 nm in a microplate reader. Data was normalized and reported as percent of control.
In general terms: Tetrazolium assays rely on reduction of a dye to a coloured formazan, in cell work by metabolically active cells.

In data set [3] the test system is HeLa cells. Briefly: Caspase 3/7 assay (apoptosis). The settings on record: 24 and 48 hours. In kind it is cell-based. Here is the method:
The effect of STAT3 inhibitor on caspase activity was evaluated using a Caspase-Glo 3/7 kit (Promega) according to product directions. Briefly, HeLa cells were plated in white-walled, clear bottom 96-well plates at a density of 5,000 cells/well in 100 μL of media and were incubated for 24 hours. Media was then aspirated and replaced with 100 μL of media containing 1 μM or 10 μM of STAT3 inhibitor. Cells were exposed to compounds for 24 and 48 hours, following which plates were allowed to equilibrate to room temperature. Reconstituted caspase reagent was added to sample wells in a 1:1 ratio, mixed, and incubated in the dark for 1 hour. Luminescence was read using a microplate reader.

Another data set has as its target T2, STAT3 (Homo sapiens, UniProt P40763).
T2 construct: endogenous in cells; host or cells: HeLa
Briefly: Cell-based STAT3 DNA-binding ELISA. The settings on record: HeLa; for reduction of STAT3/DNA-binding: 24 h, 1 μM; for EC50: 24 h dose response. The procedure: Nuclear extracts were prepared using a nuclear extraction kit (Signosis) according to product directions. Briefly, 100 mm dishes of cells were washed with 1×PBS and then 1 mL of 1× Buffer I was added and dishes were rocked on ice for 10 minutes. Cells were released from the dish using a sterile scraper and centrifuged at 1200 rpm for 5 minutes at 4° C. The supernatant was discarded and the pellets were resuspended in 1× Buffer II and shaken on ice for 2 hours. Samples were centrifuged at 1200 rpm for 5 minutes at 4° C. and the resulting supernatants containing the nuclear extracts were placed in new microcentrifuge tubes. Protein concentrations of samples were determined via Bradford assay.
HeLa cells were plated at 1 million cells per 100 mm dish and incubated for approximately 72 hours, resulting in serum-starved confluent plates. Plates were then washed with PBS and fresh media was added containing concentrations of compounds to be evaluated or niclosamide for 24 hours. For single concentrations of compounds, cells were treated with 1 μM of compounds, as derived from 24 hour MTT assay EC50 value for niclosamide. Dose-responses of niclosamide, compound 8, and compound 17 were similarly prepared at concentrations ranging from 2-0.0156 μM. Following incubation with compounds, cellular nuclear extracts were prepared.
Measurement of STAT3 binding to DNA was performed using the TransAM STAT3 ELISA kit. Sample wells contained 20 μg of nuclear extracts from treated HeLa cells diluted in 20 μL of Complete Lysis Buffer. The ELISA was then performed as described in the recombinant ELISA section. Data was normalized and reported as percent of control.

Data set [4] concerns the target T3, SH2 domain of STAT3 (Homo sapiens, UniProt P40763).
T3 construct: 100 nM of full length GST-tagged human STAT3 protein (Abcam); purchased Abcam
As to the kind of experiment: Fluorescence polarization (FP) assay. The settings on record: 25 μM. In kind it is binding. Here is the method: FP assay was conducted as previously reported (Steffanie L. Furtek, S. L., et al., Evaluation of quantitative assays for the identification of direct signal transducer and activator of transcription 3 (STAT3) inhibitors (November 2016) Oncotarget 7(47): 77998-78008). Briefly, assay buffer (10 mM HEPES, pH 7.5, 50 mM NaCl, 1 mM EDTA, 2 mM DTT, and 0.01% Triton-X100), 100 nM of full length GST-tagged human STAT3 protein (Abcam), and varying concentrations of compounds were incubated for 1 hour at room temperature with mild agitation in 96-well half area black plates (Corning). Fluorescent peptide 5-FAM-G(pTyr)LPQTV-CONH2 (Genscript) was added to each assay well at a concentration of 10 nM. Final well volumes were 30 μL. Following incubation with fluorescent peptide for 30 minutes at room temperature with mild agitation, plates were examined using FP Fluorescein Dual module with excitation filter FITC FP 480 and emission filter FITC FP P-pol535 and S-pol535. Data was expressed as percent control using the equation % C=(mPdrug−mPfree)/(mPSTAT3−mPfree)*100 where mP is the value for FP measurement.

Data set [5] addresses T3, SH2 domain of STAT3. The settings on record: concentrations above 10 μM; cited from earlier work.
Data set [6] has as its system Leukemia Stem cells (LSCs). As to the kind of experiment: Leukemia stem cell viability (apoptosis markers, flow cytometry). The format is cell-based. The settings on record: 24 hours. Here is the method: (§1) Leukemia Stem cells (LSCs) were incubated with compound 17 (STAT3i) for 24 hours and cell viability was measured. […] Primary human AML cells were treated with compound 17 (STAT3i). The cells were then cultured on methylcellulose and colony formation was measured. […] STAT3 was knocked down in primary human AML samples using shRNA methods (shSTAT3).

In data set [7] the test system is Cord-blood derived CD34+ normal hematopoietic stem cells. Briefly: Colony formation of normal hematopoietic stem cells. The format is cell-based. Here is the method: (§2) Cord-blood derived CD34+ normal hematopoietic stem cells were treated with compound 17 (STAT3i).
The test system of data set [8] is Leukemia Stem cells (LSCs). As to the kind of experiment: Seahorse assay of oxygen consumption. In kind it is cell-based. The settings on record: four hours incubation. Here is the method:
(§3) Leukemia stem cells (LSCs) were incubated with compound 17 (STAT3i) for four hours. Seahorse assays were then used to measure oxygen consumption. […] Flow cytometry analysis verified that there was no cell death at the time of RNAseq analysis. FIG. 19 is a chart showing the expression changes of various genes involved in OXPHOS after incubation with compound 17. FIG. 20 is an image of western blot analysis of the expression of electron transport chain genes after incubating cells with compound 17.

Data set [9] has as its system Leukemia Stem cells (LSCs). Briefly: RNAseq, qPCR and western blot expression analysis in LSCs. In kind it is cell-based. The procedure:
as §3
Leukemia stem cells (LSCs) were incubated with compound 17 (STAT3i) and RNAseq analysis was subsequently performed. […] Knockdown of Myc in LSCs using siRNA leads to a subsequent downregulation of the glutamine receptor SLC1A5 and a decrease in OXPHOS.

The next data set has as its system Primary human AML cells. As to the kind of experiment: Colony formation on methylcellulose. In kind it is cell-based. The procedure: as §1
For another data set, the system named is Primary AML cells. Briefly: Engraftment of treated primary AML cells transplanted into immunodeficient mice. In kind it is in vivo. The conditions noted are these: then transplanted into immunodeficient mice. Here is the method: Primary AML cells were treated with compound 17 (STAT3i) and transplanted into immunodeficient mice.
Another data set concerns Primary AML samples. As to the kind of experiment: Glutamine flux, ROS and western blot in primary AML samples. In kind it is cell-based. The procedure:
Primary AML samples were incubated with heavy labeled glutamine in flux experiments aimed at measuring TCA cycle metabolites. […] FIG. 22 is a graph showing that reactive oxygen species (ROS) is increased in AML cells that were treated with compound 17 (STAT3i).

The subject of data set [10] is Cord-blood derived CD34+ normal hematopoietic stem cells. Briefly: Viability of normal hematopoietic stem cells. The format is cell-based. Here is the method:
as §2

T2 sequence (P40763 whole entry): as above
T3 sequence (P40763 whole entry, the tested form may be a part): as the sequence (P40763 whole entry) above

For the compound `O=C(Oc1ccc([N+](=O)[O-])cc1Cl)c1cc(Cl)ccc1O` [Compound 4, 2-Chloro-4-nitrophenyl 5-chloro-2-hydroxybenzoate], in data set [1], the “reduction of recombinant STAT3/DNA-binding relative to niclosamide” value is “performed worse than niclosamide” and the “mean value, % of STAT3 only control” value is 76%.

On to `O=C(Nc1ccc([N+](=O)[O-])cc1Cl)c1cc(Cl)ccc1O` [niclosamide, reference compound], for which the concentration giving a half-maximal response (EC50) in the data set with HeLa cells [2] amounted to 1000 nM; at STAT3, 179 ± 28 nM. The induction of apoptosis result in the data set on HeLa cells [3] (1 μM) is on record as “only a slight increase in apoptosis”; in the data set with HeLa cells [3] (10 μM), “twice as much apoptosis”. For the same compound, at STAT3, the “reduction of STAT3/DNA-binding” value is “approx. 80%”.

In the case of `O=C(Nc1ccc([N+](=O)[O-])cc1Cl)c1cc(Cl)c(-c2ccccc2)cc1O` [Compound 14, 2-Chloro-N-(2-chloro-4-nitrophenyl)-5-hydroxy-[1,1′-biphenyl]-4-carboxamide], the “affinity for the SH2 domain” value on SH2 domain of STAT3 [4] is on record as “slight affinity for the SH2 domain”.

Turning to `O=C(Nc1ccc([N+](=O)[O-])cc1Cl)c1cc([N+](=O)[O-])ccc1O` [Compound 9, N-(2-Chloro-4-nitrophenyl)-2-hydroxy-5-nitrobenzamide], the “reduction of recombinant STAT3/DNA-binding relative to niclosamide” value in data set [1] is reported as “means less than or equal to niclosamide”.

In the case of S3I-1757 [Compound S3I-1757], on SH2 domain of STAT3 [5], the “inhibition of fluorescent peptide binding” value is “complete inhibition”.

Take `O=C(Nc1ccc([N+](=O)[O-])cc1Cl)c1cc(Cl)ccc1Cl` [Compound 18, 2,5-Dichloro-N-(2-chloro-4-nitrophenyl)benzamide]: the “reduction of recombinant STAT3/DNA-binding relative to niclosamide” value in data set [1] is “means less than or equal to niclosamide”.

`Nc1ccc(NC(=O)c2cc(N)ccc2O)c(Cl)c1` [Compound 10, 5-Amino-N-(4-amino-2-chlorophenyl)-2-hydroxybenzamide]: the “affinity for the SH2 domain” value at SH2 domain of STAT3 [4] is listed as “slight affinity for the SH2 domain”.

With `O=C(Nc1ccccc1Cl)c1cc(Cl)ccc1O` [Compound 3, 5-Chloro-N-(2-chlorophenyl)-2-hydroxybenzamide], in data set [1], the “reduction of recombinant STAT3/DNA-binding relative to niclosamide” value is “performed worse than niclosamide” and the “mean value, % of STAT3 only control” value amounted to 80%.

For `CN(C(=O)c1cc(Cl)ccc1O)c1ccc([N+](=O)[O-])cc1Cl` [Compound 8, 5-Chloro-N-(2-chloro-4-nitrophenyl)-2-hydroxy-N-methylbenzamide], the “reduction of recombinant STAT3/DNA-binding relative to niclosamide” value in [1] is “means less than or equal to niclosamide”. For the same compound, in the data set on HeLa cells [2], a half-maximal response (EC50) required 1150 ± 380 nM. Besides, in the data set with HeLa cells [3] (10 μM), the induction of apoptosis result is given as “time-dependent increase in apoptosis”. In addition, on STAT3, the “reduction of STAT3/DNA-binding” value is on record as “approx. 80%” and it took 239 ± 39 nM to reach a half-maximal effect (EC50).

Take `O=C(Nc1ccc([N+](=O)[O-])cc1Br)c1cc(Br)ccc1O` [Compound 2, 5-Bromo-N-(2-bromo-4-nitrophenyl)-2-hydroxybenzamide]: at SH2 domain of STAT3 [4], the “affinity for the SH2 domain” value is given as “slight affinity for the SH2 domain”.

`O=C(Nc1ccc([N+](=O)[O-])cc1Cl)c1cc(Cl)c(-c2ccco2)cc1O` [Compound 17, 5-Chloro-N-(2-chloro-4-nitrophenyl)-4-(furan-2-yl)-2-hydroxybenzamide]: the “cell viability of LSCs” value in data set [6] is on record as “significant cell death”. The “reduction of recombinant STAT3/DNA-binding relative to niclosamide” value in data set [1] is “means less than or equal to niclosamide”. Also, in data set [7], the “colony formation of CD34+ normal hematopoietic stem cells” value is “not affected”. For the same compound, in the data set with HeLa cells [2], the total cell viability result is on record as “did not drop below 50% until high concentrations” and a half-maximal effect (EC50) was put at 315 ± 70 nM. The oxygen consumption result in data set [8] is on record as “decrease in oxygen consumption”. For the same compound, the “expression of OXPHOS and mitochondrial matrix genes” value in data set [9] is given as “decrease in the expression”. Further, the Myc expression result in data set [9] (verified by qPCR and western blot) was “decreased”. Besides, in the data set on Primary human AML cells, the “colony formation of primary human AML cells” value is “significant decrease in colony formation”. Also, the induction of apoptosis result with HeLa cells [3] (1 μM) is on record as “time-dependent increase in apoptosis”. Also, the “engraftment of primary AML cells” value in the data set on Primary AML cells is “decreased engraftment”. Also, at STAT3, the “reduction of STAT3/DNA-binding” value was “approx. 80%” and a half-maximal effect (EC50) was put at 59 ± 11 nM. In the data set with Primary AML samples (AML cells), the “reactive oxygen species (ROS)” value is on record as “increased”. Also, in the data set on Primary AML samples (heavy labeled glutamine flux), the TCA cycle metabolites entry is listed as “decrease in TCA cycle metabolites”. Besides, the SLCA15 expression entry in the data set on Primary AML samples (western blot) is reported as “downregulated”. Moreover, the “viability of CD34+ normal hematopoietic stem cells” value in data set [10] is “not affected”.
